# The NIST ThermoML archive (doi:10.1021/je8008254)
# Numbers after ± are expanded uncertainties.
# Assay: xn = mol fraction of the nth substance listed
# Conditions: 101 kPa, Liquid
structure (smiles),measurement,setting,value
CCCCn1cc[n+](C)c1.N#C[S-] [1-butyl-3-methylimidazolium thiocyanate] + CCCO,mass density,"298.15 K, x1 = 0.0267",819.06 ± 1.2 kg/m3
same,viscosity,"298.15 K, x1 = 0.0267",2.26 ± 0.1 mPa·s
same,mass density,"298.15 K, x1 = 0.0833",854.16 ± 1.1 kg/m3
same,viscosity,"298.15 K, x1 = 0.0833",2.87 ± 0.13 mPa·s
same,mass density,"298.15 K, x1 = 0.1849",903.16 ± 0.88 kg/m3
same,viscosity,"298.15 K, x1 = 0.1849",4.27 ± 0.19 mPa·s
same,mass density,"298.15 K, x1 = 0.2538",930.41 ± 0.78 kg/m3
same,viscosity,"298.15 K, x1 = 0.2538",5.34 ± 0.24 mPa·s
same,mass density,"298.15 K, x1 = 0.3429",959.02 ± 0.69 kg/m3
same,viscosity,"298.15 K, x1 = 0.3429",7.42 ± 0.31 mPa·s
same,mass density,"298.15 K, x1 = 0.4577",988.94 ± 0.64 kg/m3
same,viscosity,"298.15 K, x1 = 0.4577",10.9 ± 0.4 mPa·s
same,mass density,"298.15 K, x1 = 0.5868",1015.47 ± 0.77 kg/m3
same,viscosity,"298.15 K, x1 = 0.5868",16.7 ± 0.6 mPa·s
same,mass density,"298.15 K, x1 = 0.6791",1030.55 ± 0.94 kg/m3
same,viscosity,"298.15 K, x1 = 0.6791",20.5 ± 0.8 mPa·s
same,mass density,"298.15 K, x1 = 0.805",1048.14 ± 1.2 kg/m3
same,viscosity,"298.15 K, x1 = 0.805",25.8 ± 1 mPa·s
same,mass density,"298.15 K, x1 = 0.9342",1062.97 ± 1.5 kg/m3
same,viscosity,"298.15 K, x1 = 0.9342",38.6 ± 1.5 mPa·s
same,mass density,"298.15 K, x1 = 1",1069.79 ± 1.6 kg/m3
same,viscosity,"298.15 K, x1 = 1",51.7 ± 1.2 mPa·s
same,mass density,"308.15 K, x1 = 0.0267",811.18 ± 1.3 kg/m3
same,viscosity,"308.15 K, x1 = 0.0267",1.8 ± 0.08 mPa·s
same,mass density,"308.15 K, x1 = 0.0833",846.63 ± 1.1 kg/m3
same,viscosity,"308.15 K, x1 = 0.0833",2.3 ± 0.11 mPa·s
same,mass density,"308.15 K, x1 = 0.1849",895.99 ± 0.91 kg/m3
same,viscosity,"308.15 K, x1 = 0.1849",3.39 ± 0.15 mPa·s
same,mass density,"308.15 K, x1 = 0.2538",923.49 ± 0.81 kg/m3
same,viscosity,"308.15 K, x1 = 0.2538",4.21 ± 0.19 mPa·s
same,mass density,"308.15 K, x1 = 0.3429",952.34 ± 0.72 kg/m3
same,viscosity,"308.15 K, x1 = 0.3429",5.71 ± 0.25 mPa·s
same,mass density,"308.15 K, x1 = 0.4577",982.5 ± 0.66 kg/m3
same,viscosity,"308.15 K, x1 = 0.4577",8.22 ± 0.34 mPa·s
same,mass density,"308.15 K, x1 = 0.5868",1009.21 ± 0.74 kg/m3
same,viscosity,"308.15 K, x1 = 0.5868",12.3 ± 0.5 mPa·s
same,mass density,"308.15 K, x1 = 0.6791",1024.39 ± 0.91 kg/m3
same,viscosity,"308.15 K, x1 = 0.6791",14.8 ± 0.6 mPa·s
same,mass density,"308.15 K, x1 = 0.805",1042.09 ± 1.2 kg/m3
same,viscosity,"308.15 K, x1 = 0.805",18.1 ± 0.7 mPa·s
same,mass density,"308.15 K, x1 = 0.9342",1057.02 ± 1.4 kg/m3
same,viscosity,"308.15 K, x1 = 0.9342",26.2 ± 1 mPa·s
same,mass density,"308.15 K, x1 = 1",1063.89 ± 1.6 kg/m3
same,viscosity,"308.15 K, x1 = 1",34.9 ± 1.3 mPa·s
same,mass density,"318.15 K, x1 = 0.0267",803.18 ± 1.3 kg/m3
same,viscosity,"318.15 K, x1 = 0.0267",1.46 ± 0.07 mPa·s
same,mass density,"318.15 K, x1 = 0.0833",839 ± 1.1 kg/m3
same,viscosity,"318.15 K, x1 = 0.0833",1.87 ± 0.09 mPa·s
same,mass density,"318.15 K, x1 = 0.1849",888.81 ± 0.94 kg/m3
same,viscosity,"318.15 K, x1 = 0.1849",2.75 ± 0.13 mPa·s
same,mass density,"318.15 K, x1 = 0.2538",916.58 ± 0.84 kg/m3
same,viscosity,"318.15 K, x1 = 0.2538",3.4 ± 0.15 mPa·s
same,mass density,"318.15 K, x1 = 0.3429",945.66 ± 0.75 kg/m3
same,viscosity,"318.15 K, x1 = 0.3429",4.49 ± 0.2 mPa·s
same,mass density,"318.15 K, x1 = 0.4577",976.07 ± 0.69 kg/m3
same,viscosity,"318.15 K, x1 = 0.4577",6.43 ± 0.27 mPa·s
same,mass density,"318.15 K, x1 = 0.5868",1003.01 ± 0.71 kg/m3
same,viscosity,"318.15 K, x1 = 0.5868",9.37 ± 0.38 mPa·s
same,mass density,"318.15 K, x1 = 0.6791",1018.27 ± 0.88 kg/m3
same,viscosity,"318.15 K, x1 = 0.6791",11.2 ± 0.5 mPa·s
same,mass density,"318.15 K, x1 = 0.805",1036.08 ± 1.1 kg/m3
same,viscosity,"318.15 K, x1 = 0.805",13.4 ± 0.5 mPa·s
same,mass density,"318.15 K, x1 = 0.9342",1051.09 ± 1.4 kg/m3
same,viscosity,"318.15 K, x1 = 0.9342",18.7 ± 0.7 mPa·s
same,mass density,"318.15 K, x1 = 1",1058.02 ± 1.6 kg/m3
same,viscosity,"318.15 K, x1 = 1",24.2 ± 0.9 mPa·s
same,mass density,"328.15 K, x1 = 0.0267",795 ± 1.3 kg/m3
same,viscosity,"328.15 K, x1 = 0.0267",1.2 ± 0.06 mPa·s
same,mass density,"328.15 K, x1 = 0.0833",831.26 ± 1.2 kg/m3
same,viscosity,"328.15 K, x1 = 0.0833",1.55 ± 0.07 mPa·s
same,mass density,"328.15 K, x1 = 0.1849",881.57 ± 0.98 kg/m3
same,viscosity,"328.15 K, x1 = 0.1849",2.27 ± 0.11 mPa·s
same,mass density,"328.15 K, x1 = 0.2538",909.63 ± 0.87 kg/m3
same,viscosity,"328.15 K, x1 = 0.2538",2.8 ± 0.1 mPa·s
same,mass density,"328.15 K, x1 = 0.3429",939 ± 0.78 kg/m3
same,viscosity,"328.15 K, x1 = 0.3429",3.6 ± 0.2 mPa·s
same,mass density,"328.15 K, x1 = 0.4577",969.67 ± 0.72 kg/m3
same,viscosity,"328.15 K, x1 = 0.4577",5.1 ± 0.2 mPa·s
same,mass density,"328.15 K, x1 = 0.5868",996.84 ± 0.7 kg/m3
same,viscosity,"328.15 K, x1 = 0.5868",7.3 ± 0.3 mPa·s
same,mass density,"328.15 K, x1 = 0.6791",1012.18 ± 0.84 kg/m3
same,viscosity,"328.15 K, x1 = 0.6791",8.7 ± 0.4 mPa·s
same,mass density,"328.15 K, x1 = 0.805",1030.11 ± 1.1 kg/m3
same,viscosity,"328.15 K, x1 = 0.805",10.4 ± 0.4 mPa·s
same,mass density,"328.15 K, x1 = 0.9342",1045.22 ± 1.4 kg/m3
same,viscosity,"328.15 K, x1 = 0.9342",14 ± 0.6 mPa·s
same,mass density,"328.15 K, x1 = 1",1052.19 ± 1.5 kg/m3
same,viscosity,"328.15 K, x1 = 1",16.7 ± 0.7 mPa·s
same,mass density,"338.15 K, x1 = 0.0267",786.6 ± 1.4 kg/m3
same,viscosity,"338.15 K, x1 = 0.0267",1 ± 0.05 mPa·s
same,mass density,"338.15 K, x1 = 0.0833",823.39 ± 1.2 kg/m3
same,viscosity,"338.15 K, x1 = 0.0833",1.3 ± 0.06 mPa·s
same,mass density,"338.15 K, x1 = 0.1849",874.27 ± 1 kg/m3
same,viscosity,"338.15 K, x1 = 0.1849",1.9 ± 0.09 mPa·s
same,mass density,"338.15 K, x1 = 0.2538",902.7 ± 0.9 kg/m3
same,viscosity,"338.15 K, x1 = 0.2538",2.35 ± 0.11 mPa·s
same,mass density,"338.15 K, x1 = 0.3429",932.34 ± 0.81 kg/m3
same,viscosity,"338.15 K, x1 = 0.3429",3.01 ± 0.14 mPa·s
same,mass density,"338.15 K, x1 = 0.4577",963.3 ± 0.75 kg/m3
same,viscosity,"338.15 K, x1 = 0.4577",4.18 ± 0.19 mPa·s
same,mass density,"338.15 K, x1 = 0.5868",990.7 ± 0.73 kg/m3
same,viscosity,"338.15 K, x1 = 0.5868",5.89 ± 0.26 mPa·s
same,mass density,"338.15 K, x1 = 0.6791",1006.14 ± 0.81 kg/m3
same,viscosity,"338.15 K, x1 = 0.6791",6.97 ± 0.3 mPa·s
same,mass density,"338.15 K, x1 = 0.805",1024.2 ± 1.1 kg/m3
same,viscosity,"338.15 K, x1 = 0.805",8.19 ± 0.34 mPa·s
same,mass density,"338.15 K, x1 = 0.9342",1039.4 ± 1.3 kg/m3
same,viscosity,"338.15 K, x1 = 0.9342",10.9 ± 0.4 mPa·s
same,mass density,"338.15 K, x1 = 1",1046.43 ± 1.5 kg/m3
same,viscosity,"338.15 K, x1 = 1",12.7 ± 0.5 mPa·s
same,mass density,"348.15 K, x1 = 0.0267",777.98 ± 1.4 kg/m3
same,viscosity,"348.15 K, x1 = 0.0267",0.848 ± 0.043 mPa·s
same,mass density,"348.15 K, x1 = 0.0833",815.39 ± 1.3 kg/m3
same,viscosity,"348.15 K, x1 = 0.0833",1.1 ± 0.05 mPa·s
same,mass density,"348.15 K, x1 = 0.1849",866.94 ± 1 kg/m3
same,viscosity,"348.15 K, x1 = 0.1849",1.62 ± 0.08 mPa·s
same,mass density,"348.15 K, x1 = 0.2538",895.73 ± 0.94 kg/m3
same,viscosity,"348.15 K, x1 = 0.2538",2 ± 0.09 mPa·s
same,mass density,"348.15 K, x1 = 0.3429",925.71 ± 0.84 kg/m3
same,viscosity,"348.15 K, x1 = 0.3429",2.56 ± 0.12 mPa·s
same,mass density,"348.15 K, x1 = 0.4577",956.97 ± 0.77 kg/m3
same,viscosity,"348.15 K, x1 = 0.4577",3.46 ± 0.16 mPa·s
same,mass density,"348.15 K, x1 = 0.5868",984.6 ± 0.75 kg/m3
same,viscosity,"348.15 K, x1 = 0.5868",4.81 ± 0.22 mPa·s
same,mass density,"348.15 K, x1 = 0.6791",1000.13 ± 0.78 kg/m3
same,viscosity,"348.15 K, x1 = 0.6791",5.64 ± 0.25 mPa·s
same,mass density,"348.15 K, x1 = 0.805",1018.32 ± 1 kg/m3
same,viscosity,"348.15 K, x1 = 0.805",6.62 ± 0.28 mPa·s
same,mass density,"348.15 K, x1 = 0.9342",1033.61 ± 1.3 kg/m3
same,viscosity,"348.15 K, x1 = 0.9342",8.69 ± 0.36 mPa·s
same,mass density,"348.15 K, x1 = 1",1040.7 ± 1.4 kg/m3
same,viscosity,"348.15 K, x1 = 1",9.98 ± 0.41 mPa·s
